Data as given in PMC2362906, “Effects of new 17α-hydroxylase/C17,20-lyase inhibitors on LNCaP prostate cancer cell growth in vitro and in vivo” (British Journal of Cancer, 1999).
“Also recorded” adds a separate entry of the source.

How the values were obtained:
[1] = system: serum testosterone; test: Serum testosterone (RIA) in SCID mice; format: in vivo, male SCID mice; conditions: 28 days of treatment, 50 mg kg-1 day-1
Text: (§1) Prostate cancer is the most common malignancy and the second leading cause of cancer-related deaths among men in the US and the UK (Shibata et al, 1998). […] Steroidal 17-hydroxylase/C17,20 -lyase (P450c17) (EC 1.14.99.0) was selected as the target enzyme for inhibition, as this is a key regulatory enzyme of androgen synthesis. P450c17 catal- yses two sequential reactions in the steroid biosynthetic pathway and converts pregnenolone and progesterone to the C-19 andro- gens, dehydroepiandrosterone and androstenedione respectively. This enzyme has an identical amino acid sequence in testicular and adrenal tissues (Chung et al, 1987). […] In order to evaluate the effectiveness of these inhibitors we developed a multi-step system, which utilized the LNCaP human prostate cancer cell line. LNCaP cells remain the only androgen receptor (AR)-positive prostate cancer cell line, that can be readily grown in tissue culture (Horoszewicz et al, 1983). These cells respond to androgens with increased cell proliferation and elevated expression of prostate specific antigen (PSA) (Berns et al, 1993). LNCaP cells at early passages are not only androgen-responsive, but also androgen- dependent (Pousette et al, 1997). This is similar to the situation in most tumours of prostatic cancer patients, which are initially highly responsive and dependent on androgens. […] Therefore, we employed LNCaP cells as a model for evaluating the effectiveness of our new inhibitors of androgen synthesis. In this study the compounds selected for evaluation were two groups of azolyl steroids. […] Here we report on the application of LNCaP-CYP17-transfected cells for determining the inhibitory potencies of the new compounds against the P450c17 enzyme. […] We designed and evaluated two groups of azolyl steroids: 5-non-competitive inhibitors (5NCIs), VN/63-1, VN/85-1, VN/87-1 and their corresponding 4 derivatives (4NCIs), VN/107-1, VN/108-1 and VN/109-1. The human P450c17 gene was transfected into LNCaP human prostate cancer cells, and the resultant LNCaP- CYP17 cells were utilized to evaluate the inhibitory potency of the new azolyl steroids. […] We further evaluated our inhibitors in male severe combined immuno- deficient mice bearing LNCaP tumour xenografts. […] We also utilized wild-type LNCaP prostatic carcinoma cells for evaluating the direct effects of new azolyl steroids on proliferation of these cells in vitro and in vivo. MATERIALS AND METHODS Materials The human prostate cancer cell line LNCaP was obtained from the American Type Culture Collection (Rockville, MD, USA). RPMI- 1640 medium, trypsin-EDTA (0.25%/0.02%), penicillin/strepto- mycin (P/S), geniticin (G418), and LipofectAMINE were from Gibco-BRL (Grand Island, NY, USA). Fetal bovine serum (FBS) was obtained from Summit Biotechnology Inc. (Fort Collins, CO, USA) and steroid-free FBS was prepared as described previously (Klus et al, 1996). Phenol red free IMEM and trypsin-versine were purchased from Biofluids Inc. (Rockville, MD, USA). Chloroform and acetonitrile were purchased from JT Baker, Inc (Phillipsburg, NJ, USA). Hydroxypropyl cellulose (HPC) was purchased from Sigma Chemical Co. (St Louis, MO, USA). The PSA enzyme- linked immunusorbent assay (ELISA) kit was from DSL Inc. (Webster, TX, USA). Matrigel was generously supplied by Dr Hynda Kleinman (NIH, Bethesda, MD, USA). Inhibitors of androgen synthesis: VN/63-1, VN/85-1, VN/87-1, VN/107-1, VN/108-1 and VN/109-1 were synthesized in our labo- ratory as previously described (Njar et al, 1998). […] Metribolone [17-methyl-3 H]-R1881 ([3 H]-R1881: specific activity 86 Ci mmol-1 ) was purchased from Dupont NEN (Boston, MA, USA).

[2] = system: LNCaP cells; test: Testosterone-stimulated wild-type LNCaP cell growth; format: cell-based, human; conditions: 0.1 nM testosterone, 9 days; for Effect on testosterone-stimulated cell growth (words): 0.5-5.0 μM compound
Text: as §1

[3] = target: T1, human 17α-hydroxylase/C17,20-lyase (P450c17) expressed in LNCaP-CYP17 cells (Homo sapiens, UniProt P05093); test: [3H]-acetic acid releasing assay (AARA) with LNCaP-CYP17 cells; format: cell-based; conditions: for IC50: LNCaP-CYP17 cells, 7 μM [21-3H]17-OHP5, 16 h, mean ± s.e.m., three experiments
T1 sequence (P05093 9-508 limits assumed): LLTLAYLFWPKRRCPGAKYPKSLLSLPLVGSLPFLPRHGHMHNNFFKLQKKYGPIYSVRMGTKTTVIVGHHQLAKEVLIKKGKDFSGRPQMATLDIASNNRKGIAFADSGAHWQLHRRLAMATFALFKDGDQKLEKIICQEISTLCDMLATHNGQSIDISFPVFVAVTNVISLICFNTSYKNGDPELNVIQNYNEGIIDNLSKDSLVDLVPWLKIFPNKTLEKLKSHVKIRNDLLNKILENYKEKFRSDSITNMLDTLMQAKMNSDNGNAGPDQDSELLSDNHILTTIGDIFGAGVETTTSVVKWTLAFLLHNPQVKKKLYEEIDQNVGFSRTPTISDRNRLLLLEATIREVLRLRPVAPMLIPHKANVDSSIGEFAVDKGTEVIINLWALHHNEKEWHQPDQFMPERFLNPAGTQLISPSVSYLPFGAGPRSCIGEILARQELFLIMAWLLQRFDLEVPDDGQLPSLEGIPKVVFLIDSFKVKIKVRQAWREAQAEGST

[4] = system: serum DHT; test: Serum DHT (RIA) in SCID mice; format: in vivo, male SCID mice; conditions: 28 days of treatment, 50 mg kg-1 day-1
Text: as §1

[5] = system: LNCaP tumour xenografts; test: LNCaP tumour xenograft growth in male SCID mice; format: in vivo
Text: as §1

[6] = target: human prostatic 5-reductase; set-up: method as in Njar et al, 1998; conditions: human prostatic microsomes; reported previously; ref Njar et al, 1998; cited from earlier work
[7] = system: LNCaP cells; test: DHT-stimulated wild-type LNCaP cell growth; format: cell-based, human; conditions: 0.03 nM DHT, 9 days; for Effect on DHT-induced cell proliferation: 0.5-5.0 μM compound
Text: as §1

[8] = system: serum PSA; test: Serum PSA (ELISA) in LNCaP tumour-bearing SCID mice; format: in vivo, male SCID mice; conditions: first experiment, 50 mg kg-1 day-1, 28 days
Text: Prostate cancer is the most common malignancy and the second leading cause of cancer-related deaths among men in the US and the UK (Shibata et al, 1998). […] Steroidal 17-hydroxylase/C17,20 -lyase (P450c17) (EC 1.14.99.0) was selected as the target enzyme for inhibition, as this is a key regulatory enzyme of androgen synthesis. P450c17 catal- yses two sequential reactions in the steroid biosynthetic pathway and converts pregnenolone and progesterone to the C-19 andro- gens, dehydroepiandrosterone and androstenedione respectively. This enzyme has an identical amino acid sequence in testicular and adrenal tissues (Chung et al, 1987). […] In order to evaluate the effectiveness of these inhibitors we developed a multi-step system, which utilized the LNCaP human prostate cancer cell line. LNCaP cells remain the only androgen receptor (AR)-positive prostate cancer cell line, that can be readily grown in tissue culture (Horoszewicz et al, 1983). These cells respond to androgens with increased cell proliferation and elevated expression of prostate specific antigen (PSA) (Berns et al, 1993). LNCaP cells at early passages are not only androgen-responsive, but also androgen- dependent (Pousette et al, 1997). This is similar to the situation in most tumours of prostatic cancer patients, which are initially highly responsive and dependent on androgens. […] Therefore, we employed LNCaP cells as a model for evaluating the effectiveness of our new inhibitors of androgen synthesis. In this study the compounds selected for evaluation were two groups of azolyl steroids. […] Here we report on the application of LNCaP-CYP17-transfected cells for determining the inhibitory potencies of the new compounds against the P450c17 enzyme. […] We designed and evaluated two groups of azolyl steroids: 5-non-competitive inhibitors (5NCIs), VN/63-1, VN/85-1, VN/87-1 and their corresponding 4 derivatives (4NCIs), VN/107-1, VN/108-1 and VN/109-1. The human P450c17 gene was transfected into LNCaP human prostate cancer cells, and the resultant LNCaP- CYP17 cells were utilized to evaluate the inhibitory potency of the new azolyl steroids. […] We further evaluated our inhibitors in male severe combined immuno- deficient mice bearing LNCaP tumour xenografts. […] We also utilized wild-type LNCaP prostatic carcinoma cells for evaluating the direct effects of new azolyl steroids on proliferation of these cells in vitro and in vivo. MATERIALS AND METHODS Materials The human prostate cancer cell line LNCaP was obtained from the American Type Culture Collection (Rockville, MD, USA). RPMI- 1640 medium, trypsin-EDTA (0.25%/0.02%), penicillin/strepto- mycin (P/S), geniticin (G418), and LipofectAMINE were from Gibco-BRL (Grand Island, NY, USA). Fetal bovine serum (FBS) was obtained from Summit Biotechnology Inc. (Fort Collins, CO, USA) and steroid-free FBS was prepared as described previously (Klus et al, 1996). Phenol red free IMEM and trypsin-versine were purchased from Biofluids Inc. (Rockville, MD, USA). Chloroform and acetonitrile were purchased from JT Baker, Inc (Phillipsburg, NJ, USA). Hydroxypropyl cellulose (HPC) was purchased from Sigma Chemical Co. (St Louis, MO, USA). The PSA enzyme- linked immunusorbent assay (ELISA) kit was from DSL Inc. (Webster, TX, USA). Matrigel was generously supplied by Dr Hynda Kleinman (NIH, Bethesda, MD, USA). […]

[9] = Table 3, second experiment, control 0.205
[10] = Table 3, second experiment, control 239.2
[11] = second experiment, 50 mg kg-1 day-1, 28 days
[12] = Table 2, first experiment, control 1.043
[13] = Table 2, first experiment, control 243.8
[14] = first experiment, 50 mg kg-1 day-1, 28 days

Row | SMILES | Serum Testosterone [1, 9] [ng/mL] | Concentration that completely inhibited the growth stimulatory effect of testosterone [2] [µM] | IC50 [3] [µM] | Serum DHT [4, 10] [pg/mL] | Effect on tumour growth (words) [5, 11] | IC50 [6] [µM] | Concentration that completely blocked DHT stimulation [7] [µM] | Serum Testosterone [1, 12] [ng/mL] | Serum PSA levels versus control [8] | Serum DHT [4, 13] [pg/mL] | Reduction of tumour weights compared to vehicle-treated mice [5, 14] [%] | Inhibition of LNCaP tumour growth (tumour volume) ([5]; first experiment, 50 mg kg-1 day-1, 4 weeks) [%] | Effect on testosterone-stimulated cell growth (words) [2] | Effect on tumour growth (words) ([5]; second experiment, 50 mg kg-1 day-1, 28 days, listed as VN/107) | Effect on DHT-induced cell proliferation [7] | Stimulation of LNCaP tumour growth compared to control mice [5, 11] [%] | Km ([3]; substrate 0.5-20 μM, 16 h, 37C, RADLIG software) [µM]
1 | C[C@]12CC[C@H](O)CC1=CC[C@@H]1[C@@H]2CC[C@]2(C)C(n3cncn3)=CC[C@@H]12 [VN/63-1] | 0.146 | 1.0 | 0.0471 | 189.7 | Neither VN/63-1, VN/107 nor ketoconazole had any appreciable effects | > 5 | 1.0 | – | – | – | – | – | – | – | – | – | –
2 | C[C@]12CC[C@H](O)CC1=CC[C@@H]1[C@@H]2CC[C@]2(C)C(n3ccnc3)=CC[C@@H]12 [VN/85-1] | – | 1.0 | 0.00125 ± 0.00044 | – | – | > 5 | 1.0 | 0.141 | significantly lower | 143.7 | 27 | – | – | – | – | – | –
3 | C[C@]12CC[C@H](O)CC1=CC[C@@H]1[C@@H]2CC[C@]2(C)C(n3ccnn3)=CC[C@@H]12 [VN/87-1] | – | – | 0.00797 | – | – | > 5 | – | 0.343 | significantly lower | 128.6 | 31 | 33 | – | – | – | – | –
4 | C[C@]12CCC(=O)C=C1CC[C@@H]1[C@@H]2CC[C@]2(C)C(n3cncn3)=CC[C@@H]12 [VN/107-1] | 0.153 | – | 0.0124 | 180.2 | no significant effects on tumour growth or tumour weights | 0.152 | – | – | – | – | – | – | ineffective against testosterone-stimulated cell growth | Neither VN/63-1, VN/107 nor ketoconazole had any appreciable effects | least effective inhibitors of androgen-induced cell pro- liferation | – | –
5 | C[C@]12CCC(=O)C=C1CC[C@@H]1[C@@H]2CC[C@]2(C)C(n3ccnn3)=CC[C@@H]12 [VN/109-1] | – | – | 0.00539 | 228.4 | – | 0.198 | – | – | – | – | – | – | moderate inhibitory effect; also recorded: biphasic growth responses | – | least effective inhibitors of androgen-induced cell pro- liferation | 110 | –
6 | CC(=O)[C@@]1(O)CC[C@H]2[C@@H]3CC=C4C[C@@H](O)CC[C@]4(C)[C@H]3CC[C@@]21C [[213 H]17-hydroxypregnenolone, [21-3 H]17-Hydroxypregnenolone, reference compound] | – | – | – | – | – | – | – | – | – | – | – | – | – | – | – | – | 0.87
